Measurements: patent US20200270225A1, “Chiral Diacylhydrazine Ligands for Modulating the Expression of Exogenous Genes via an Ecdysone Receptor Complex” (Intrexon Corporation, priority 2007, published 2020)

What was measured:
[1] = tested on: RheoSwitch® Therapeutic System (RTS) gene expression; test: In vivo induction of RTS SEAP reporter in electroporated mice; set-up: species or system C57BL6 mice; settings: intraperitoneal injection 26 nmol/mouse; monitored seventeen days
From the text: The wild-type D, E, and F domains from spruce budworm Choristoneura fumiferana EcR (“CfEcR-DEF”; SEQ ID NO: 1) were mutated [V107 (gtt)→1107 (att) and Y127 (tac)→E127 (gag)] and fused to a GAL4 DNA binding domain (“Gal4DBD1-147”; SEQ ID NO: 2). Helices 1 through 8 of the EF domains from Homo sapiens RXRPβ (“HsRXRβ-EF”; nucleotides 1-465 of SEQ ID NO: 4) and helices 9 through 12 of the EF domains of Locusta migratoria Ultraspiracle Protein (“LmUSP-EF”; nucleotides 403-630 of SEQ ID NO: 5) were fused to the transactivation domain from VP16 (“VP16AD”; SEQ ID NO: 6), which regulates a reporter gene human secreted alkaline phosphatase (“SEAP”, SEQ ID NO: 12) that was placed under the control of a 6xGAL4 response element (SEQ ID NO: 13) and a transthyretin promoter (SEQ ID NO: 14). Each element of the gene switch was on a separate plasmid. Receptor expression was under the control of a CMV promoter (SEQ ID NO: 15). Induction was evaluated by the amount of reporter protein expressed in the presence of ligand.
SEAP expression in serum of mice was evaluated after electroporation of the gene switch into mouse quadriceps. Mice were anesthetized with 2 μL/g of a mixture of ketamine (100 mg/mL) and xylazine (20 mg/mL). Animals were then shaved, DNA vectors injected into the muscle in a volume of 2×50 μL polyglutamic acid (12 mg/mL water), electrode conductivity gel applied, and an electrode caliber (1 cm×1 cm; model 384) was placed on hind leg. The muscle was electroporated with 200 V/cm, 8 times, for 20 msec/pulse, at 1 sec time intervals. The transverse electrical field direction was reversed after the animals received half of the pulses. Electroporation was performed with an ECM 830 electroporator from BTX Molecular Delivery Systems.
[…] In other experiments the concentration of ligand was decreased to 26 nmol/50 μL of DMSO/mouse. […]
Mouse serum was obtained by centrifugation of blood acquired by retroorbital bleeding with a small glass capillary tube. SEAP quantification was determined using a Clontech Great Escape chemiluminescence kit and by comparison with the Clontech SEAP standard. […]

MDR1-MDCK cells = test: Blood brain barrier penetration potential using MDR1-MDCK cells; assay type: in vitro ADME
Description: The test compounds were prepared as a 5 μM solution in HBSSg with a maximum DMSO concentration ≤1%. Confluent monolayers of MDR1-MDCK cells, 7 to 11 days old were prepared. The receiver well was prepared with 1% BSA in modified Hanks buffer (HBSSg), and the apical and basolateral sides were maintained at pH 7.4±0.2. Two monolayers were dosed in each direction (N=2): the apical side was dosed for (A→B) assessment and the basolateral side was dosed for (B→A) assessment. Test compound concentration was measured for both apical and basolateral sides at a time point of 120 minutes using a generic LC/MS/MS method with a minimum 4 point calibration curve. The reported values in FIG. 14: the percent recovery of the test compound from the Transwell® wells containing MDR1-MDCK cell monolayers; apparent permeability (Papp) in both directions; efflux ratio (Papp B→A)/(Papp A→B); and the blood-brain barrier penetration potential classification. […] Also, R enantiomer experiences less efflux. […] Higher blood-brain barrier penetration is a significant advantage for medical indications where central nervous system (CNS) penetration is required.

[2] = Blood serum levels after oral gavage in Labrasol; assay type: in vivo, C57BL/6N:Crl mice; settings: 30 and 50 mg/kg/day, 9 and 12 days
Description: Compounds in Labrasol were administered to C57BL/6N:Crl (wild-type) mice (Charles River Laboratories) by oral gavage, the intended route of administration in humans. Dosage was set at 3, 10, 30, or 50 mg/kg/day and 2.5 mL/kg/dose (FIG. 16). Doses were administered for 9 days (first 18 females/group) or 12 days (second 18 females/group) (FIG. 16). Blood was withdrawn at 9-day and 12-day time points. Concentrations were quantified by reverse-phase HPLC.
For each concentration, the samples were prepared by adding Labrasol to solid R enantiomer or racemate in a beaker, sonicating to break up visible aggregates, and magnetic stirring until a uniform appearance was attained. The mixtures were transferred to a graduated cylinder and topped off to the requisite volume using a Labrasol rinse of the beaker. The contents of the cylinder were mixed by inversion and stirred magnetically until dosing.
Mouse blood serum levels as a function of time were measured by quantitative HPLC. […] The initial particle size differences between racemate an R enantiomer may account for a portion of the serum level differences. Also, the greater intrinsic solubility of the R enantiomer over the racemate in Labrasol may account for a portion of the serum level differences. […]

| SMILES | RTS gene reporter (SEAP) expression in mouse serum [1] | blood-brain barrier penetration potential classification (MDR1-MDCK cells) | blood serum levels [2] | efflux, compared (MDR1-MDCK cells) | apparent permeability (Papp), compared (MDR1-MDCK cells; A→B and B→A, 5 μM, 120 minutes) |
| --- | --- | --- | --- | --- | --- |
| CCCC(N(NC(=O)c1cccc(OC)c1CC)C(=O)c1cc(C)cc(C)c1)C(C)(C)C (racemic) [rac-1, rac-2-ethyl-3-methoxy-benzoic acid N′-(1-tert-butyl-butyl)-N′-(3,5-dimethyl-benzoyl)-hydrazide] | induces modest RTS gene reporter expression | low | substantially lower (<4-5 fold AUC) | – | – |
| CCC[C@@H](N(NC(=O)c1cccc(OC)c1CC)C(=O)c1cc(C)cc(C)c1)C(C)(C)C [Example 1, (R)-3,5-Dimethyl-benzoic Acid N-(1-tert-butyl-butyl)-N′-(2-ethyl-3-methoxy-benzoyl)-hydrazide] | induces substantial RTS gene reporter expression | moderately penetrating through the blood-brain barrier | significantly higher blood serum levels | less efflux | more permeable than racemate in both A→B and B→A directions |
